Tests used:
Format in all cases: cell-based
[1] = target: T1, hTRPM2 R302A/R358A (Homo sapiens, UniProt O94759, R302A/R358A); test: Whole-cell patch-clamp, N-terminal ADPR-binding site mutant; conditions: ADPR
T1 construct: expressed in transfected cells; host or cells: HEK293T cells, transient transfection (Lipofectamine 3000), GFP cDNA co-transfected as a separate marker
Description: (§1) Human embryonic kidney 293 (HEK293) cells with tetracycline-inducible expression of human TRPM2 channel (hTRPM2) were cultured in a mixed medium containing DMEM/ F-12 (Gibco, USA) and 10% fetal bovine serum (Gibco, USA) as well as blasticidin (50 μg/ml, Invivogen, USA) and zeocin (0.4 mg/ml, Invivogen, USA). The expression of hTRPM2 was induced by substituting blasticin and zeocin for tetracycline (1 μg/ml, Sigma, USA) 24-48 hours before use. TRPM2 channel mutants were transiently expressed in HEK293T cells by transfection with using Lipofectamine 3000. Briefly, HEK293T cells were transiently transfected with cDNAs encoding the mutant hTRPM2 channel. The cDNA for GFP was co-transfected as a marker for identification of the transfected cells for electrophysiological experiments 16-24 hours after transfection. […]
(§2) Coronal cortical slices were transferred into the recording chamber and continuously perfused at room temperature with ACSF oxygenated with 95% O2 and 5% CO2. […] For whole-cell or single channel recordings from transfected HEK-293T cells, the coverslips were placed in a culture dish (35 × 35 mm, Sorfa) containing HEPES based extracellular solution (ECS) and recorded by patch-clamp technique. […] Each coverslip was recorded only once with different drug exposures. […]

[2] = target: T2, TRPM2-ΔN/ΔC (Homo sapiens, UniProt O94759); test: Whole-cell patch-clamp, truncation mutant; conditions: ADPR 500 μM
T2 construct: expressed in transfected cells; host or cells: HEK293T cells, transient transfection, GFP cDNA co-transfected as a separate marker
Description: as §1, §2

[3] = target: T3, hTRPM2 K928A/D1069A double mutant (Homo sapiens, UniProt O94759, D1069A/K928A); test: Whole-cell patch-clamp, bilirubin-binding cavity double mutant; conditions: intracellular ADPR 500 μM
T3 construct: expressed in transfected cells; host or cells: HEK293T cells, transient transfection, GFP cDNA co-transfected as a separate marker
Description: as §1, §2

T2 sequence (O94759 1-1449 isoform O94759-2): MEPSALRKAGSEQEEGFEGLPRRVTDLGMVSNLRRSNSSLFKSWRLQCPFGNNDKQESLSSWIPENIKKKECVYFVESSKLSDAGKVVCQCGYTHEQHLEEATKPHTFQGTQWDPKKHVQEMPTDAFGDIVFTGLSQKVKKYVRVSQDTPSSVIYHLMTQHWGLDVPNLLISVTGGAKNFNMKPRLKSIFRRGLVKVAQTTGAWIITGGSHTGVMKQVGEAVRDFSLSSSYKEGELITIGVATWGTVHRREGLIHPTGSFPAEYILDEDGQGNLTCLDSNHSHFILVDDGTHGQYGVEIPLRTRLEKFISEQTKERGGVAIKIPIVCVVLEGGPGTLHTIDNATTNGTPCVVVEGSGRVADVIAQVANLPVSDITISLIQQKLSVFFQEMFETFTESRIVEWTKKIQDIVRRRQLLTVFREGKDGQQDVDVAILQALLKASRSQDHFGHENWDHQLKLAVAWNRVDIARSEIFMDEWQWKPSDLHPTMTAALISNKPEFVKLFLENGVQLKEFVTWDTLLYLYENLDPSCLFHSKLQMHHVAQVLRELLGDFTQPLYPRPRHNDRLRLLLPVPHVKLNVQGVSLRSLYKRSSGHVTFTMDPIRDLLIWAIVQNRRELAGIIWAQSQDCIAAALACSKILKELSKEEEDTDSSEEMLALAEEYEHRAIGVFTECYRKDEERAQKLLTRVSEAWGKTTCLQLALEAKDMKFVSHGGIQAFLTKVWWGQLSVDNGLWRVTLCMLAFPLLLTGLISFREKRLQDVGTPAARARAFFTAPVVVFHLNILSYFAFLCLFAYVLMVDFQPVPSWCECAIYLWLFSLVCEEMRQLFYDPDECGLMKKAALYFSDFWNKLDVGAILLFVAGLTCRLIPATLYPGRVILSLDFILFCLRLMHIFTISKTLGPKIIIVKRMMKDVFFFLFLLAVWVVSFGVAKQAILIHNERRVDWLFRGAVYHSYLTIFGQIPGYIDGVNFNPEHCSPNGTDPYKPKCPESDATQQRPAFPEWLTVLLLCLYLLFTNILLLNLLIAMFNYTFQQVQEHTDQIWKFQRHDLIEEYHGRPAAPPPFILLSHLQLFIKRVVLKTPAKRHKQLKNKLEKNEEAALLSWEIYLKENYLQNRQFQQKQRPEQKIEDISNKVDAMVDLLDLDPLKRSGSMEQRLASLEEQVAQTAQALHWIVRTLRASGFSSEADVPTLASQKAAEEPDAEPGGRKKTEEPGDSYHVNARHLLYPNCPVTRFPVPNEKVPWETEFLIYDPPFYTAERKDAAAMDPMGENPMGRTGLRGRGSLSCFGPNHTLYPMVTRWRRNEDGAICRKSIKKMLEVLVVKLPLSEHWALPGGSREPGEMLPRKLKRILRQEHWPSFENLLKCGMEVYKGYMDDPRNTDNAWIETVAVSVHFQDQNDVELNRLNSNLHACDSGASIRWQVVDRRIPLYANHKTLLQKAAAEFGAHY
T1 sequence (O94759 whole entry R302A/R358A): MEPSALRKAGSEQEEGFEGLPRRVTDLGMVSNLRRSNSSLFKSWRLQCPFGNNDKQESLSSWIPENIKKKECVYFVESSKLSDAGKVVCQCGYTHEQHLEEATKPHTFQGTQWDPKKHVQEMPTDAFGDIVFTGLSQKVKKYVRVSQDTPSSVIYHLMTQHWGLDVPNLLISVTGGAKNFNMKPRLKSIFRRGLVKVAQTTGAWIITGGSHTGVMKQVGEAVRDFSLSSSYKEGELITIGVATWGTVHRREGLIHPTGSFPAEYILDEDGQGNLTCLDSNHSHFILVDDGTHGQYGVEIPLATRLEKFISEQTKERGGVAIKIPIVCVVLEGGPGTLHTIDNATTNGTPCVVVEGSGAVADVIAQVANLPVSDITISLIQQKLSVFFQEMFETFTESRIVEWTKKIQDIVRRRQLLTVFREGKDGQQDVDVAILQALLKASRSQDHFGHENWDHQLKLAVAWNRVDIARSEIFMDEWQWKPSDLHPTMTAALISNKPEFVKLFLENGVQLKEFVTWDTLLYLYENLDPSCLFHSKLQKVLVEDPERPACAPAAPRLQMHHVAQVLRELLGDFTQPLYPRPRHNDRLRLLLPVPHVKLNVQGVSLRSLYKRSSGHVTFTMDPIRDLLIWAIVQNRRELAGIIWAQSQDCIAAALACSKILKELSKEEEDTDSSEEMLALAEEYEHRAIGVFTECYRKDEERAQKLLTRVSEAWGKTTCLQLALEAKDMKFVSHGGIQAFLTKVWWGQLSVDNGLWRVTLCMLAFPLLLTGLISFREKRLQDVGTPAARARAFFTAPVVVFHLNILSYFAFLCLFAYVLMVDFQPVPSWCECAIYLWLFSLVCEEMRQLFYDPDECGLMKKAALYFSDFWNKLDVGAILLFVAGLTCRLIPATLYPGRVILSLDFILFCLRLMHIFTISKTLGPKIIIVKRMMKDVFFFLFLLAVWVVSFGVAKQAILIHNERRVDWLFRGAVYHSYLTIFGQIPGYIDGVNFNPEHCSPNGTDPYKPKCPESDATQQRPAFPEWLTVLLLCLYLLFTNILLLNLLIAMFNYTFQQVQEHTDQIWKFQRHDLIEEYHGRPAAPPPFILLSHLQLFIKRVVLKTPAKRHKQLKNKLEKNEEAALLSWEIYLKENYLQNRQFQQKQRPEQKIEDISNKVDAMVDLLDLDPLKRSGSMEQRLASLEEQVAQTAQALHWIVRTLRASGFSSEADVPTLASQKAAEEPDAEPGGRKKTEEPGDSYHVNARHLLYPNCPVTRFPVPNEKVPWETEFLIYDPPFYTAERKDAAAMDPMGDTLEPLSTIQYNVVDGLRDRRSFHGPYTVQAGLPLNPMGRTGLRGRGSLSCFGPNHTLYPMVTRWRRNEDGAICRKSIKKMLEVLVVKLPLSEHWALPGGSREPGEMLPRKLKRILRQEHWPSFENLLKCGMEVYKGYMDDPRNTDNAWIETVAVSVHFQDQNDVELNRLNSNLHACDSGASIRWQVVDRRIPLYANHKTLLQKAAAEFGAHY
T3 sequence (O94759 whole entry K928A/D1069A): as the sequence (O94759 whole entry R302A/R358A) above, with A302R, A358R, K928A, D1069A counted along it

`Nc1ncnc2c1ncn2C1O[C@H](COP(=O)([O-])OP(=O)(O)OC[C@H]2OC(O)[C@H](O)[C@@H]2O)[C@@H](O)[C@H]1O.O.O.[Na+]` (stereo partly drawn) [ADPR, Adenosine 5ʹ-diphosphoribose sodium salt] was tested, and the “activation of mutant TRPM2 currents” value [1] was “failed to evoke currents”, the “activation of mutant TRPM2 currents” value [2] was “eliminated the activation” and the “activation of mutant TRPM2 currents” value [3] was “perfectly retained their agonist capacity”.

— publication PMC10191619, “Bilirubin gates the TRPM2 channel as a direct agonist to exacerbate ischemic brain damage” (Neuron, 2023)
